In article PMC7736581, “Activation of the IRE1 RNase through remodeling of the kinase front pocket by ATP-competitive ligands” (Nature Communications, 2020):

What was measured:
Cot = biological target: T1, Cot (Homo sapiens, UniProt P41279); assay: biochemical; parameters: Invitrogen kinase panel: Z'Lyte activity (ATP at Km) or LanthaScreen competitive ATP-site binding, percent inhibition
T1 construct: gene MAP3K8

FAK2 = biological target: T2, FAK2 (Homo sapiens, UniProt Q14289); assay: biochemical; parameters: Invitrogen kinase panel: Z'Lyte activity (ATP at Km) or LanthaScreen competitive ATP-site binding, percent inhibition
T2 construct: gene PTK2B

PDGFR_beta = biological target: T3, PDGFR_beta (Homo sapiens, UniProt P09619); assay: biochemical; parameters: Invitrogen kinase panel: Z'Lyte activity (ATP at Km) or LanthaScreen competitive ATP-site binding, percent inhibition
T3 construct: gene PDGFRB

[1] = biological target: Inositol-Requiring Enzyme 1 (IRE1) (Homo sapiens, UniProt O75460); assay: co-crystal structure ([…] Å); also TR-FRET kinase binding, HX-MS, SV-AUC, RNase activation; parameters: gene ERN1; unphosphorylated IRE1 cytoplasmic kinase-RNase (IRE1-0P)
Sequence of Inositol-Requiring Enzyme 1 (IRE1) (O75460 547-977): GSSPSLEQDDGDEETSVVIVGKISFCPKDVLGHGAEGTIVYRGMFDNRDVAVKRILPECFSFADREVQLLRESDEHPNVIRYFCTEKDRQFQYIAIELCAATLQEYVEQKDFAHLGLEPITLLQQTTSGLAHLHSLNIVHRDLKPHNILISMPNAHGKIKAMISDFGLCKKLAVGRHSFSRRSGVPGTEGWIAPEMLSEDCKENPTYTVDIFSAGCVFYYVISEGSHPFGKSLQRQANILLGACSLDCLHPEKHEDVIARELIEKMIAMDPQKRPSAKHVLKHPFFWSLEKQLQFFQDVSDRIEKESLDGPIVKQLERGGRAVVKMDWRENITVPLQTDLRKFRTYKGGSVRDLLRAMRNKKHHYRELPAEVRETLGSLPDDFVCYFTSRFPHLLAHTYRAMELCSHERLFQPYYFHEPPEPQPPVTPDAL

T3 sequence (P09619 whole entry): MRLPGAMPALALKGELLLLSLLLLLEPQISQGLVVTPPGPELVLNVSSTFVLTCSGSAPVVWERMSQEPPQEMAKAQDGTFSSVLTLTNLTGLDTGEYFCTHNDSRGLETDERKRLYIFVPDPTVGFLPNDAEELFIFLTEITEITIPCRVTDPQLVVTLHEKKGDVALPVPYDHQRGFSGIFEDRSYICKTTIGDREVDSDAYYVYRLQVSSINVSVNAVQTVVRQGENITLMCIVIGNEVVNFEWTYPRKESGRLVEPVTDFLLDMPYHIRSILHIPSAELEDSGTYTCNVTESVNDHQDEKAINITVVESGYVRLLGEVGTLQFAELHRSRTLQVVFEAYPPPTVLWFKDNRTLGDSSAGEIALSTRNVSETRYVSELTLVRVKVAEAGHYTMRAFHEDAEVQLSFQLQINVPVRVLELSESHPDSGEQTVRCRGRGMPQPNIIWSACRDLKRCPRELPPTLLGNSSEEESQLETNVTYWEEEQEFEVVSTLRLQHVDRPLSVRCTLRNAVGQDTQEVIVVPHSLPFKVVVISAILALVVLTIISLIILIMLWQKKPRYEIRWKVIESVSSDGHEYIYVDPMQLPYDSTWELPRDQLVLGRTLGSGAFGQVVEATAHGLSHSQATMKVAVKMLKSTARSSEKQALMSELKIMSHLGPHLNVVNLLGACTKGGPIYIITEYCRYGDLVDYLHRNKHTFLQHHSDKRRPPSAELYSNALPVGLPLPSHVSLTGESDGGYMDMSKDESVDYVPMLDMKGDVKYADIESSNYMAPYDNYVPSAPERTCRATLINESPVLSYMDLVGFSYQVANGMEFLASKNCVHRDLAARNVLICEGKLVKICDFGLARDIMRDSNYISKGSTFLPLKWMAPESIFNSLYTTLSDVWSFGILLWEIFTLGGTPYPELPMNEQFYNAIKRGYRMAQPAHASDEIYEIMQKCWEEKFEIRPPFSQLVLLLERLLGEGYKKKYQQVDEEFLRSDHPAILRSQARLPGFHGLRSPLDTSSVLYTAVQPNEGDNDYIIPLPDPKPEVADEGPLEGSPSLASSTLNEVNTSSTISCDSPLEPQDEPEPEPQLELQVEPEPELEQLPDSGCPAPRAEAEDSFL
T2 sequence (Q14289 whole entry): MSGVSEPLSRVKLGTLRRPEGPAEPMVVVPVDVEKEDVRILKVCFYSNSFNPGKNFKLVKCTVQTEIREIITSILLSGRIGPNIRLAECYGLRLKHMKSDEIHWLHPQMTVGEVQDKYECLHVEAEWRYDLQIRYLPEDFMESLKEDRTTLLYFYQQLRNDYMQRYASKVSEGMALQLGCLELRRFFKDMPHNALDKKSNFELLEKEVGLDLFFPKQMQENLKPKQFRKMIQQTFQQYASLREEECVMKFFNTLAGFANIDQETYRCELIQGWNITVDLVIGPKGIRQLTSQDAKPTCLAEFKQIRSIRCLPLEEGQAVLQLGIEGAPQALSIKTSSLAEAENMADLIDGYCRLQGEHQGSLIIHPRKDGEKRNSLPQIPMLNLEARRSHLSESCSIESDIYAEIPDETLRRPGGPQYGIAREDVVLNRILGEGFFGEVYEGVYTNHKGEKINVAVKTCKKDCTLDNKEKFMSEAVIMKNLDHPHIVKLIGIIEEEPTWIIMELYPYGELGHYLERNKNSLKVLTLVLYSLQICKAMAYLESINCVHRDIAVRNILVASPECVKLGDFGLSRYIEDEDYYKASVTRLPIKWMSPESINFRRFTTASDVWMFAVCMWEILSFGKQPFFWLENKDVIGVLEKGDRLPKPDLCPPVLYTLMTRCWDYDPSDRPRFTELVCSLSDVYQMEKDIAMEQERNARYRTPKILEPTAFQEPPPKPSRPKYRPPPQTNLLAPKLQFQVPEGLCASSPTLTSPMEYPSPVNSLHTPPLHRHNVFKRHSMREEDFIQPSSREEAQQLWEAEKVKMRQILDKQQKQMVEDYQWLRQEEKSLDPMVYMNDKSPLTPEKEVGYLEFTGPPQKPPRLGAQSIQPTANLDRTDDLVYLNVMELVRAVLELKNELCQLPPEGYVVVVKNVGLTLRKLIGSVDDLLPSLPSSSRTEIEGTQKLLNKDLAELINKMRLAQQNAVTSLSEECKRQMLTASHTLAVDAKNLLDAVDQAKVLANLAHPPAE
T1 sequence (P41279 whole entry): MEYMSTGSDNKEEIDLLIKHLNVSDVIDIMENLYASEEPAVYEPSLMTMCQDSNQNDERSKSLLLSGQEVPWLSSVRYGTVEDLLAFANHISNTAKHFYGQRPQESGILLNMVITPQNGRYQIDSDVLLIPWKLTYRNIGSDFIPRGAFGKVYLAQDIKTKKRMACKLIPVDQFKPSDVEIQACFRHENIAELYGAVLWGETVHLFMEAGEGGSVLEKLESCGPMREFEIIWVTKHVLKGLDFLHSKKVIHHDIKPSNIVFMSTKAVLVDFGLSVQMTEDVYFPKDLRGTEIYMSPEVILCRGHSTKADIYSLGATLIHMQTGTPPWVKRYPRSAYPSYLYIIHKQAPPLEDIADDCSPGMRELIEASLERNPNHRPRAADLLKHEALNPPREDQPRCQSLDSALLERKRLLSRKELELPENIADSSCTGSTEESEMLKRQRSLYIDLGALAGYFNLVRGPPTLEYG

Question: With `O=c1cc(-c2n[nH]c3ncc(-c4c(F)cccc4F)cc23)nc(N2CCC(O)CC2)[nH]1` [G-9807] as the compound, how does the inhibition at 1 µM (Cot) read?
Answer: 94%

Question: And the inhibition at 1 µM (FAK2)?
Answer: 79.6%

Question: What about the inhibition at 1 µM (PDGFR_beta) of the same compound?
Answer: 80.4%

Question: And the IC50 [1]?
Answer: low-nanomolar
